# Paper PMC7050258, “Inhibition of MGAT2 modulates fat‐induced gut peptide release and fat intake in normal mice and ameliorates obesity and diabetes in ob/ob mice fed on a high‐fat diet” (FEBS Open Bio, 2020)
# Values joined by “and” are separate entries in the source; they are usually repeats but may differ in a detail not shown here. Equal values may be shown once.
# Columns and labels:
# rats fed a 35% fat diet = test system: rats fed a 35% fat diet; set-up: method as in PMID 25857225; details: cited from earlier work
# HFD-fed ob/ob mice = HFD-fed ob/ob mice study; assay type: in vivo, mouse
# Experimental: Male ob/ob mice were fed an HFD (D12451; Research Diets, Inc.) from 8 weeks of age to the end of the study. After 2 weeks of HFD feeding, the mice were divided into groups based on their body weight, food intake, glycated hemoglobin (GHb), and plasma biochemical parameters. […] Compounds were suspended in 0.5% methylcellulose. Body weight and food intake were monitored during the study. On day 34, blood was collected and GHb and plasma biochemical parameters were measured. In addition, body composition was analyzed by EchoMRI‐900 (Hitachi Aloka Medical, Ltd., Tokyo, Japan). On day 36, the mice in the vehicle‐ and CpdB‐treated group were individually placed in the metabolic chamber of an Oxymax system (Columbus Instruments, Columbus, OH, USA). After 3 h of adaptation, oxygen consumption (VO2) and carbon dioxide production (VCO2) were analyzed for 22 h (from 13:00 to 11:00). During the measurement, dosing of vehicle or CpdB was performed at 18:00. Respiratory quotient (RQ) and energy expenditure (EE) were calculated with the following formulas: RQ=VCO2/VO2 EEkcal/h=3.815+1.232×VCO2/VO2×VO2
# Blood samples were collected from the tail or facial vein without anesthesia and centrifuged at 1500 g for 10 min at 4 °C to isolate the plasma. To prevent degradation of incretin hormone, blood samples were treated with not only heparin/aprotinin but also a dipeptidyl peptidase‐4 (DPP‐4) inhibitor. Plasma alanine aminotransferase […] levels were measured by an Autoanalyzer 7180 (Hitachi High‐Technologies Corporation, Tokyo, Japan). GHb was measured with an automated GHb analyzer (HLC‐723G8; Tosoh, Tokyo, Japan). Plasma insulin was measured with an ELISA kit (Shibayagi Co., Ltd., Gunma, Japan). Plasma levels of total GLP‐1 and total PYY were also measured with an ELISA kit (Wako Pure Chemicals).
# C57BL/6J mice = assay: Food choice test (HFD vs LFD); assay type: in vivo, mouse; details: overnight, CpdB 10 mg/kg oral, liraglutide 0.04 mg/kg sc
# Experimental: The choice between HFD (D12451; Research Diets, Inc.) and low‐fat diet (LFD, 10% kcal fat, 3.8 kcal·g^−1; D124510B; Research Diets, Inc.) was assessed in C57BL/6J mice. Following habituation to normal chow, HFD and LFD were presented in separate containers simultaneously, and overnight food intake of each diet was monitored. The mice were divided into groups based on the data of food intake and body weight. Then, vehicle or CpdB (10 mg·kg^−1) was orally administered, and the overnight food intake of each diet was monitored. CpdB was suspended in 0.5% methylcellulose. As a positive control, liraglutide (0.04 mg·kg^−1) dissolved in 10% DMSO/saline was subcutaneously administered.
# rats = test system: rats; set-up: method as in PMID 22301859; details: cited from earlier work
# [1] = CpdB 30 mg/kg, pioglitazone 3 mg/kg oral once daily, mean
# [2] = CpdB 30 mg/kg, pioglitazone 3 mg/kg oral once daily, single animal values
# [3] = EchoMRI, day 34, CpdB 30 mg/kg, pioglitazone 3 mg/kg, mean
# [4] = EchoMRI, day 34, CpdB 30 mg/kg, pioglitazone 3 mg/kg, single animal values
# [5] = day 34, CpdB 30 mg/kg, pioglitazone 3 mg/kg oral once daily, mean ± SD, n=8
compound,measurement,setting,value
CC(C)(C)c1cc(C(C)(C)C)nc(N2CCn3c(nnc3-c3ccc(OC(F)(F)F)cc3)C2)n1 [JTP‐103237],increase of plasma levels of PYY after lipid loading,rats fed a 35% fat diet,enhance the increase
"CCc1ccc(CCOc2ccc(CC3SC(=O)NC3=O)cc2)nc1 (stereo not shown) [Pioglitazone, pioglitazone, reference compound]","Body weight change from initial, AVE",HFD-fed ob/ob mice; [1],30.48%
same,"Cumulative food intake, AVE",HFD-fed ob/ob mice; [1],136.37 g
same,"Body weight change from initial, individual animal",HFD-fed ob/ob mice; [2],29.04% and 29.60% and 25.91% and 30.72% and 29.56% and 32.63% and 37.29%
same,"Cumulative food intake, individual animal",HFD-fed ob/ob mice; [2],144.84 g and 134.34 g and 122.14 g and 143.74 g and 138.07 g and 136.64 g and 133.11 g and 138.10 g
same,"Body composition, Fat, AVE",HFD-fed ob/ob mice; [3],63.35%
same,"Body composition, Lean, AVE",HFD-fed ob/ob mice; [3],36.65%
same,"Body composition, Fat, individual animal",HFD-fed ob/ob mice; [4],62.74% and 63.31% and 66.38% and 62.25% and 63.50% and 61.77% and 61.53% and 65.34%
same,"Body composition, Lean, individual animal",HFD-fed ob/ob mice; [4],33.62% and 37.75% and 36.50% and 38.23% and 38.47% and 37.26% and 36.69%
same,"GHb, Pre","HFD-fed ob/ob mice; before dosing, mean ± SD, n=8",5.9 ± 0.3%
same,"Plasma AST, Pre","HFD-fed ob/ob mice; before dosing, mean ± SD, n=8",314 ± 61 U·L^−1
same,"Plasma insulin, Pre","HFD-fed ob/ob mice; before dosing, mean ± SD, n=8",103 ± 29 ng/mL
same,"ΔGHb, AVE","HFD-fed ob/ob mice; change 34 days after repeated dosing, CpdB 30 mg/kg, pioglitazone 3 mg/kg oral once daily, mean",-1.01%
same,"ΔGHb, individual animal","HFD-fed ob/ob mice; change 34 days after repeated dosing, CpdB 30 mg/kg, pioglitazone 3 mg/kg, single animal values",-1.00% and -0.90% and -1.10% and -1.40% and -0.70% and -0.80%
same,"GHb, Post",HFD-fed ob/ob mice; [5],4.9 ± 0.4 %
same,"Plasma ALT, Post",HFD-fed ob/ob mice; [5],803 ± 132 U·L^−1
same,"Plasma AST, Post",HFD-fed ob/ob mice; [5],733 ± 174 U·L^−1
same,"Plasma insulin, Post","HFD-fed ob/ob mice; day 34, CpdB 30 mg/kg, pioglitazone 3 mg/kg oral once daily, nonfasting, mean ± SD, n=8",30.8 ± 16 ng/mL
Liraglutide,"Food intake, energy intake of HFD, AVE","C57BL/6J mice; mean, N=5",6.46 kcal
same,"Food intake, energy intake of low-fat diet, AVE","C57BL/6J mice; mean, N=5",0.24 kcal
same,"Food intake, total energy intake, AVE","C57BL/6J mice; mean, N=5",6.69 kcal
same,"Food intake, energy intake of HFD, individual animal",C57BL/6J mice; single animal values,6.02 kcal and 8.08 kcal and 6.16 kcal and 4.18 kcal and 7.85 kcal
same,"Food intake, energy intake of low-fat diet, individual animal",C57BL/6J mice; single animal values,0.00 kcal and 0.19 kcal and 0.34 kcal and 0.27 kcal and 0.38 kcal
same,"Food intake, total energy intake, individual animal",C57BL/6J mice; single animal values,6.02 kcal and 8.27 kcal and 6.50 kcal and 4.45 kcal and 8.23 kcal
same,intake of highly palatable diet,rats,predominantly reduce the intake of highly palatable diet
